pIC50: −log10 of the molar value.
Key:
human Factor XIa = human Factor XIa (Homo sapiens, UniProt P03951); experiment: Factor XIa enzyme inhibition assay (dose response, fluorogenic AMC substrate); type: biochemical; set-up: Enzyme: Factor XIa; settings: purified enzyme; substrate 50 μM, enzyme 0.25 nM; read-out: hFXIa IC50
Protocol: (§1) • Assay buffer: 20 mM Hepes, pH 7.4; 150 mM NaCl; 0.02% Tween 20 • Compounds: 10 mM stocks in DMSO • Substrate: 20 mM Glp-Pro-Arg-AMC, 25 mg/2.3 mL H2O (store at +4° C.) [Factor XIa, thrombin, and trypsin] • 20 mM Pro-Phe-Arg-AMC (Bachem I-1295), 25 mg/2.2 mL H2O or Boc-Leu-Gly-Arg-AMC (Bachem I-1105), 25 mg/2.07 mL H2O (store at +4° C.) [Factor Xa] • Enzyme: Factor XIa; 0.25 M in 50% glycerol (20 μg/mL) • Trypsin; 0.2 μM in 50% glycerol (4.8 μg/mL) • Thrombin; 0.2 μM in 50% glycerol (7.34 μg/mL) • Factor Xa; 0.2 μM in 50% glycerol (9.2 μg/mL)
(§2) • 1. Dilute the substrate to 100 μM in assay buffer (30 μL/6 mL). The enzyme is diluted to 0.5 nM just prior to use (12 L/6 mL for Factor XIa; 15 μL/6 mL for all of the rest.) • 2. Pipette 50 μL of substrate into each well of the 96 well (12×8) microtiter plate. (Column 1 is used as the 100% activity control and receives no compound, and Column 12 is the blank and receives no enzyme.) Add an additional 46 μL to column 2. • 3. Pipette 4 μL of each compound into the appropriate well in column 2 of the plate (unknowns assayed in triplicate, standard assayed in duplicate). The final compound concentration will be 1/50th of the stock. • 4. Serially two-fold dilute the compound by mixing the sample in column 2, removing 50 μL to the next well (column 3), mix and remove to column 4, etc. until column 11. After mixing column 11, remove 50 μL and discard. • 5. Pipette 50 μL of buffer into column 12. Initiate the reaction by adding 50 μL of enzyme solution to each well of columns 1-11 as rapidly as possible. • 6. Read the plate in a spectrophotometer (SpectraMax) at 30° C., wherein each well is measured every 60 s for 30 min. For Factor Xa assays, each well is measured every 1 min for a total of 60 min. • 7. For Factor XIa assays, the compounds are assayed, in duplicate, at 3 different starting concentrations, 20, 2, and 0.2 μM; 1:10, 1:100, and 1:1000 dilution of 10 mM stock or at 2, 0.2, and 0.02 μM; 1:100, 1:1000, and 1:10,000 dilution of 10 mM stock. Data for each concentration are combined for graphing and data fitting. • 8. Data can be used both for estimation of IC50 and for estimation of Kon.
Potential inhibitors of Factor XIa were evaluated using the following assay.
PyroGlu-Pro-Arg-7-methylaminocourin (AMC), available from CPC Scientific, Inc., is based on the substrate pyro-Glu-Pro-Arg-pNA (S-2366), available from Diapharma Group, Inc. (Columbus, Ohio), wherein the p-nitroanaline group is replaced with 7-methylaminocoumarin (AMC).
The final concentration of the substrate in the assay was 50 μM, and the final concentration of the enzyme was 0.25 nM. Inhibitors were tested by serial dilution over an appropriate range to yield a dose response curve for determination of the inhibitors' IC50 value. The assay mixture was read every minute for 30 minutes in order to generate progress curves. The plates were read in a Spectramax m5 Multimode Plate Reader (Molecular Devices LLC, Sunnyvale, Calif.). Dose response curves were fit to Equation 1 below in which A is the maximum inhibition, B is the minimum inhibition, C is the IC50, and D is the Hill coefficient.
Y=[(A−B)/(1+(X/C)^D)]+B (Equation 1)

[1] = Caco-2 cell permeability assay (A-B and B-A); type: in vitro ADME; settings: human; for Papp A→B at 60 min, 10 μM: A-B direction; for Papp B→A at 40 min, 10 μM: B-A direction
Protocol: The following procedure was used to determine the ability of a test compound to cross Caco-2 cells (human intestinal epithelial cells derived from a colorectal adenocarcinoma). The cells were seeded at 1×10^5 cells/cm^2 in 96-well Multiscreen™ plates (Millipore). Permeability assays were performed with the cells at days 21-25 post-seeding. Cells are typically used for 15 consecutive passages in culture.
This assay can be performed in either the apical to basolateral (A−B) or basolateral to apical (B−A) direction. The test compound was prepared at 10 μM in HBSS-MES (pH 6.5) or HBSS-HEPES (pH 7.4) with a final DMSO concentration of 1%. The working solution was then centrifuged and the supernatant added to the donor side. The assay plate was incubated at 37° C. with gentle shaking for 60 min or 40 min for the A−B or B−A assay, respectively. Samples were aliquoted from the donor side at time zero and the end point, and from the receiver side at the end point.
Reference compounds, propranolol (highly permeable), labetalol (moderately permeable), ranitidine (poorly permeable), and colchicine (P-glycoprotein substrate) were included in each assay.
Samples are analyzed by HPLC-MS/MS using selected reaction monitoring. The HPLC system consists of a binary LC pump with autosampler, a C-18 column, and a gradient.
The apparent permeability coefficient (Papp) of the test compound (Equation 2) and its recovery (Equation 3) are calculated as follows: […]
wherein A is the surface area of the cell monolayer (0.11 cm^2), C is concentration of the test compound expressed as peak area, D denotes donor, and R is receiver. “0”, “mid,” and “end” denote time at zero, mid-point, and end of the incubation, respectively. At is the incubation time. V is the volume of the donor or receiver.
This is most likely due to non-specific binding or degradation.

Factor Xa = target: T1, Factor Xa (Homo sapiens, UniProt P00742); experiment: Dose response assay for protease inhibitors: Factor Xa; type: biochemical; settings: ratio versus Factor XIa
T1 construct: Factor Xa; 0.2 μM in 50% glycerol (9.2 μg/mL)
Protocol: as §1, §2

Thrombin = target: T2, Thrombin (Homo sapiens, UniProt P00734); experiment: Dose response assay for protease inhibitors: thrombin; type: biochemical; settings: ratio versus Factor XIa
T2 construct: Thrombin; 0.2 μM in 50% glycerol (7.34 μg/mL)
Protocol: as §1, §2

T1 sequence (P00742 235-488 limits assumed): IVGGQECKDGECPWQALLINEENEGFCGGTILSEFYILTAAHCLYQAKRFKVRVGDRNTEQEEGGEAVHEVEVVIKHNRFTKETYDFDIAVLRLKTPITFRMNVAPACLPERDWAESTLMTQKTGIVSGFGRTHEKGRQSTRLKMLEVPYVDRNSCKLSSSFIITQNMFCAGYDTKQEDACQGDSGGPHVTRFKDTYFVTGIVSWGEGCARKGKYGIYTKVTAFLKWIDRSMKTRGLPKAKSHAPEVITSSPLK
T1 sequence (P00742 41-179 partner limits assumed): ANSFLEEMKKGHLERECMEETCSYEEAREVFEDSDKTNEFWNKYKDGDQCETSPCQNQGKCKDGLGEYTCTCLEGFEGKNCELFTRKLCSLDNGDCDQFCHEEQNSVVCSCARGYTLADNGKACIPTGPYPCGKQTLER
Chain of human Factor XIa (P03951 388-625 limits assumed): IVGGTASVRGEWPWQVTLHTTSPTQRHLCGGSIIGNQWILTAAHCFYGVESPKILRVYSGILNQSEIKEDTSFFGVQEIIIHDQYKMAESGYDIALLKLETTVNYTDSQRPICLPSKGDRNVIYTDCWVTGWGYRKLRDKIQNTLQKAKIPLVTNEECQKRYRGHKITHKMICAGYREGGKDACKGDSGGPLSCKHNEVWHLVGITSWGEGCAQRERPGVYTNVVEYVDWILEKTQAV
Chain of human Factor XIa (P03951 19-387 partner limits assumed): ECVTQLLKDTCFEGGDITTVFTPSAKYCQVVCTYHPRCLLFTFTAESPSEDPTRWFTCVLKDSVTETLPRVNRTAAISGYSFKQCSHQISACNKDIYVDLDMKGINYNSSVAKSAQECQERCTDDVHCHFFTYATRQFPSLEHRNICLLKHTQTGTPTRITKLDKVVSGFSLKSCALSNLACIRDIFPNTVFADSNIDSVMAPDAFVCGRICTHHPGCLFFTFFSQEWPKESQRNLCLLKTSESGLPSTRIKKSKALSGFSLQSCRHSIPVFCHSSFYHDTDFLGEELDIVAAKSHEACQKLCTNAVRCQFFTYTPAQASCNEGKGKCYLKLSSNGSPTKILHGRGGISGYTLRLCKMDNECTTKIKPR

| SMILES | pIC50 (human Factor XIa) | also measured |
| --- | --- | --- |
| CC[C@@H](NC(=O)N1C(=O)[C@H](Cc2ccnc(N)c2)[C@H]1C(=O)N(C)c1cc(Cl)cc(Cl)c1)C1CCCCC1 [Compound 51] | > 8.00 | Papp A→B at 60 min, 10 μM [1]: ≤ 10 ×10⁻⁶ cm/s; Papp B→A at 40 min, 10 μM [1]: ≤ 10 ×10⁻⁶ cm/s |
| CC[C@@H](NC(=O)N1C(=O)[C@H](Cc2ccnc(N)c2)[C@H]1C(=O)N(C)c1ccncc1)c1ccccc1C [Compound 96] | 7.00 to 8.00 | FXa/FXIa (selectivity ratio) (Factor Xa): I (“I” indicates >500) |
| CCN(C(=O)[C@@H]1[C@@H](Cc2ccnc(N)c2)C(=O)N1C(=O)N[C@@H](C1CCCCC1)C(F)(F)F)c1ncccn1 [Compound 38] | > 8.00 | Papp A→B at 60 min, 10 μM [1]: ≤ 10 ×10⁻⁶ cm/s; Papp B→A at 40 min, 10 μM [1]: ≤ 10 ×10⁻⁶ cm/s |
| CCN(C(=O)[C@@H]1[C@@H](Cc2ccnc(N)c2)C(=O)N1C(=O)N[C@@H](C1CC1)C(F)(F)F)c1ncccn1 [Compound 79] | 7.00 to 8.00 | FXa/FXIa (selectivity ratio) (Factor Xa): H (“H” indicates 101-1000); Ratio: Thrombin/FXIa (Thrombin): H (“H” indicates 101-1000) |
| CCN(C(=O)[C@@H]1[C@@H](Cc2ccnc(N)c2)C(=O)N1C(=O)N[C@@H](C1CCCCC1)C1CC1)c1ncccn1 [Compound 54] | > 8.00 | Papp A→B at 60 min, 10 μM [1]: 11 to 30 ×10⁻⁶ cm/s; Papp B→A at 40 min, 10 μM [1]: ≤ 10 ×10⁻⁶ cm/s |
| CN(C(=O)[C@@H]1[C@@H](Cc2ccnc(N)c2)C(=O)N1C(=O)N[C@@H](C1CCCCC1)C(F)(F)F)c1cnccn1 [Compound 30] | > 8.00 |  |
| CC[C@@H](NC(=O)N1C(=O)[C@H](Cc2ccnc(N)c2)[C@H]1C(=O)N(C)c1ccncc1)c1cncnc1 [Compound 102] | 7.00 to 8.00 |  |
| Cc1cccc(N(C)C(=O)[C@@H]2[C@@H](Cc3ccnc(N)c3)C(=O)N2C(=O)N[C@@H](C2CCCCC2)C(F)(F)F)c1 [Compound 14] | 7.00 to 8.00 |  |
| CC[C@@H](NC(=O)N1C(=O)[C@H](Cc2cc(N)ncc2F)[C@H]1C(=O)N(C)c1ccccc1)C1CCCCC1 [Compound 85] | < 6.00 |  |
| CN(C(=O)[C@@H]1[C@@H](Cc2ccnc(N)c2)C(=O)N1C(N)=O)c1ccccc1 [Compound 57] | 6.00 to 7.00 |  |
| CN(C(=O)[C@@H]1[C@@H](Cc2ccnc(N)c2)C(=O)N1C(=O)N[C@@H](C1CCCCC1)C(F)(F)F)c1ccccn1 [Compound 16] | > 8.00 |  |
| CC[C@@H](NC(=O)N1C(=O)[C@H](Cc2ccncc2)[C@H]1C(=O)N(C)c1ccncc1)C1CCCCC1 [Compound 65] | 6.00 to 7.00 |  |
| CC[C@@H](NC(=O)N1C(=O)[C@H](Cc2cc(C)nc(N)c2)[C@H]1C(=O)N(C)c1ccncc1)C1CCCCC1 [Compound 114] | > 8.00 |  |
| CN(C(=O)[C@@H]1[C@@H](Cc2ccnc(N)c2)C(=O)N1C(=O)N[C@@H](C1CC1)C(F)(F)F)c1ccccc1 [Compound 70] | 7.00 to 8.00 | FXa/FXIa (selectivity ratio) (Factor Xa): I (“I” indicates >500); Ratio: Thrombin/FXIa (Thrombin): G (“G” indicates 1-100); Papp A→B at 60 min, 10 μM [1]: 11 to 30 ×10⁻⁶ cm/s; Papp B→A at 40 min, 10 μM [1]: 31 to 50 ×10⁻⁶ cm/s |
| CN(C(=O)[C@@H]1[C@@H](Cc2ccnc(N)c2)C(=O)N1C(=O)N[C@@H](C1CCCCC1)C1CC1)c1ncccn1 [Compound 53] | > 8.00 |  |
| CC[C@@H](NC(=O)N1C(=O)[C@H](Cc2ccnc(N)c2)[C@H]1C(=O)N(C)c1ccccc1)c1ccncc1 [Compound 43] | 6.00 to 7.00 |  |
| CCN(C(=O)[C@@H]1[C@@H](Cc2ccnc(N)c2)C(=O)N1C(=O)N[C@@H](C1CCCCC1)C(F)(F)F)c1ccnc(C)c1 [Compound 34] | > 8.00 |  |
| Cc1cccc(C(NC(=O)N2C(=O)[C@H](Cc3ccnc(N)c3)[C@H]2C(=O)N(C)c2ccncc2)c2cccc(C)c2)c1 [Compound 101] | > 8.00 |  |
| CCNC(=O)[C@@H]1[C@@H](Cc2ccnc(N)c2)C(=O)N1C(=O)N[C@@H](c1ccccc1)C(F)(F)F [Compound 2] | 7.00 to 8.00 |  |
| CCC[C@@H](NC(=O)N1C(=O)[C@H](Cc2ccnc(N)c2)[C@H]1C(=O)N(C)c1ncccn1)c1cccnc1 [Compound 74] | > 8.00 |  |
| CC[C@@H](NC(=O)N1C(=O)[C@H](Cc2ccnc(N)c2)[C@H]1C(=O)N(C)c1ccncc1)c1cccc(Cl)c1Cl [Compound 125] | > 8.00 |  |
| CC[C@@H](NC(=O)N1C(=O)[C@H](Cc2ccnc(N)c2)[C@H]1C(=O)N(C)c1ccccc1C)C1CCCCC1 [Compound 26] | 7.00 to 8.00 |  |
| CC[C@@H](NC(=O)N1C(=O)[C@H](Cc2ccnc(NC)c2)[C@H]1C(=O)N(C)c1ccncc1)c1cccc(Cl)c1 [Compound 109] | > 8.00 |  |
| CN(C(=O)[C@@H]1[C@@H](Cc2ccnc(N)c2)C(=O)N1C(=O)NCc1cccc(Cl)c1)c1ccccc1 [Compound 137] | 7.00 to 8.00 |  |
| CN(C(=O)[C@@H]1[C@@H](Cc2ccnc(N)c2)C(=O)N1C(=O)N[C@@H](c1cccnc1)C1CC1)c1ncccn1 [Compound 75] | > 8.00 |  |
| CC[C@@H](NC(=O)N1C(=O)[C@H](Cc2cc(N)ncc2C)[C@H]1C(=O)N(C)c1ccncc1)C1CCCCC1 [Compound 92] | 7.00 to 8.00 |  |
| CC[C@@H](NC(=O)N1C(=O)[C@H](Cc2cc(C)nc(N)c2)[C@H]1C(=O)N(C)c1ccccc1)c1ccc(C)nc1 [Compound 132] | 7.00 to 8.00 |  |
| CN(C(=O)[C@@H]1[C@@H](Cc2ccncc2)C(=O)N1C(=O)N[C@@H](C1CCCCC1)C1CC1)c1ccccc1 [Compound 63] | 6.00 to 7.00 |  |
| CC[C@@H](NC(=O)N1C(=O)[C@H](Cc2ccnc(N)c2)[C@H]1C(=O)N(C)c1ccccc1)c1ccc(C)nc1 [Compound 134] | > 8.00 |  |

Source: patent US20190315711A1 (eXIthera Pharmaceuticals, Inc., priority 2016, published 2019)
